Data: patent publication US5698547A, “Cephalosporin antibiotics” (Microcide Pharmaceuticals, Inc., priority 1995, dated 1997)
Structures can show the parent of a compound that is named as a salt. Where two headings read alike, the source gives them in different places.

Key:
[1] = system: E. faecalis ATCC 29212; assay: MIC by agar dilution, E. faecalis ATCC 29212; type: cell-based; details: Enterococcus faecalis, ATCC29212, read-out: MIC
Method: (§1) The compounds of the invention were evaluated against several β-lactamresistant bacteria strains by determining the minimum inhibitory concentration (MIC, μg/ml) of each compound with respect to each strain. The MIC, the lowest concentration of antibiotic which inhibits growth of the test organism, was determined by the agar dilution method.
(§2) To determine the MIC for bacterial isolates, the test compound was incorporated in a series of two-fold dilutions into liquified Mueller-Hinton agar. Upon solidification, a number of different bacterial strains were spot inoculated with a replicating device onto the agar surface. […] The procedures used in these studies have been standardized by the National Committee for Clinical Laboratory Standards (NCCLS), as per the NCCLS publication entitled METHODS FOR DILUTION ANTIMICROBIAL SUSCEPTIBILITY TESTS (1991), which is incorporated herein by reference.
(§3) Aliquots of antimicrobial agents were prepared in phosphate buffered saline (PBS) at pH 7.2. Tween 20 or DMSO was used as a solubilizing vehicle as needed. Standard methods of vortexing, sonicating and gentle heat were used to facilitate solubilizing the test agent. Typically, the concentration of the stock solution was 10× that of the highest drug concentration tested. A 1.28 mg/mL stock solution was used with a subsequent highest working concentration of 128 μg/mL. Serial two-fold dilutions were done through ≤0.25 μg/mL. Each drug level was tested in duplicate. Two-fold drug dilutions were done in sterile 50 mL tubes with a final drug volume of 5 mL. Upon the addition of 45 mL of molten agar, a 10-fold dilution resulted. Two, 25 mL. plates were then poured into 15×150 mm square Petri plates with grids and allowed to harden.
(§4) A control plate with a reference drug, either cefotaxime, vancomycin or imipenem, was used as the positive growth control. Stock concentrations of reference antibiotics were prepared and frozen at -80° C. Upon preparation, the control plates were sealed and stored in the refrigerator for up to 1 week prior to use; however, imipenem control plates had to be prepared just prior to use. All test plates were used within 24 hours of preparation.
(§5) Satisfactory results were obtained where the inoculum contained about 10^4 colony forming units (cfu) ±0.5 logs. Starting with pure cultures of the test isolates on agar plates, a few isolated colonies were transferred to a tube of nutrient broth and allowed to grow 4-6 hours at 35°-36° C. to reach log-phase growth. Dropwise addition of the broth culture to PBS was done to match a 0.5 McFarland turbidity standard equal to 10^8 cfu/mL. This was further diluted ten-fold in PBS to reach a working inoculum concentration of 10^7 cfu/mL. When 1 μL of the working inoculum was applied to the agar surface a concentration of about 10^4 cfu per spot was obtained.
(§6) Disposable sterile 1 μL loops were used to inoculate test plates, with each isolate in a designated grid on the agar plate. An alternate method of inoculation involved the use of a replica plater, a device with 48 steel pins allowing the simultaneous inoculation of multiple isolates. After the spots had dried, the plates were incubated at 35°-36° C. for 16-20 hours. Endpoints were assessed as the minimum inhibitory concentration (MIC) of antimicrobial agent.

[2] = system: S. aureus Col (Meth^R) (lac^-); assay: MIC by agar dilution, S. aureus Col (Meth^R) (lac^-); type: cell-based; details: for MIC: Staphylococcus aureus, agar dilution, S. aureus Col (Meth^R) (lac^-), read-out: MIC
How it was run: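 Log-phase isolates were spot-inoculated at about 10^4 cfu onto Mueller-Hinton agar carrying duplicate two-fold compound levels, 128 μg/mL to ≤0.25 μg/mL, following NCCLS (1991). Plates were read after 16-20 h at 35°-36° C. The lowest growth-inhibiting concentration gave the MIC (μg/ml).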

[3] = system: E. faecium ATCC 35667; assay: MIC by agar dilution, E. faecium ATCC 35667; type: cell-based; details: Enterococcus faecium, ATCC35667, read-out: MIC
Method: as §1, §2, §3, §4, §5, §6

[4] = system: S. aureus Col8A (Meth^S) (lac^-); assay: MIC by agar dilution, S. aureus Col8A (Meth^S) (lac^-); type: cell-based; details: Staphylococcus aureus; agar dilution; S. aureus Col8A (Meth^S) (lac^-); read-out: MIC
Method: as §1, §2, §3, §4, §5, §6
The novel agents of this invention are notable for their enhanced activity against S. aureus Col and Enterococci (E. faecium and E. faecalis). The S. aureus Col strain is a high-level PBP2a producer, whereas S. aureus Col 8A, its isogenic partner, lacks PBP2a. […] Thus, the compounds of the present invention are effective against PBP2a-producing bacteria.

[5] = system: S. aureus ATCC 29213; assay: MIC by agar dilution, S. aureus ATCC 29213; type: cell-based; details: Staphylococcus aureus, ATCC29213
Method: as §1, §2, §3, §4, §5, §6

[6] = system: E. coli ATCC 25922; assay: MIC by agar dilution, E. coli ATCC 25922; type: cell-based; details: Escherichia coli, ATCC25922, read-out: MIC
Method: as §1, §2, §3, §4, §5, §6

[7] = system: S. haemolyticus (Meth^R); assay: MIC by agar dilution, S. haemolyticus (Meth^R); type: cell-based; details: Staphylococcus haemolyticus, read-out: MIC
Method: as §1, §2, §3, §4, §5, §6

[8] = system: S. aureus 76 (Meth^R) (lac^+); assay: MIC by agar dilution, S. aureus 76 (Meth^R) (lac^+); type: cell-based; details: Staphylococcus aureus, read-out: MIC
Method: as §1, §2, §3, §4, §5, §6

[9] = system: P. aeruginosa ATCC 27853; assay: MIC by agar dilution, P. aeruginosa ATCC 27853; type: cell-based; details: Pseudomonas aeruginosa, ATCC27853, read-out: MIC
Method: as §1, §2, §3, §4, §5, §6

[10] = system: methicillin-susceptible S. aureus strain ATCC 13709; assay: murine model for lethal bacteremic peritonitis; type: in vivo, female Swiss-Webster mice; details: 72 h, subcutaneous; for ED50: Staphylococcus aureus, ATCC13709, sc, two equal doses, S. aureus ATCC 13709 IP challenge, read-out: ED50
How it was run: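 Female Swiss-Webster mice challenged IP with an LD100 titer of bacteria in 7% hog gastric mucin; groups of 10 treated SC with twofold drug increments (0.01–512 mg/kg) as two equal doses at challenge and 2 h later. Survival followed for 72 h; PD50 (total mg/kg) calculated by probit method.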

[11] = system: Enterococci (E. faecium and E. faecalis); assay: In vitro antibacterial evaluation, Enterococci; type: cell-based; details: in words
Method: as §1, §2, §3
A control plate with a reference drug, either cefotaxime, vancomycin or imipenem, was used as the positive growth control. […]
Disposable sterile 1 μL loops were used to inoculate test plates, with each isolate in a designated grid on the agar plate. […] Endpoints were assessed as the minimum inhibitory concentration (MIC) of antimicrobial agent.

[12] = agar dilution, S. aureus ATCC 29213, read-out: MIC

Row | SMILES | MIC [1] | MIC [2] | MIC [3] | MIC [4] | MIC [5, 12] | MIC [6] | MIC [7] | MIC [8] | MIC [9] | ED50 [10] | Mortality ([10]; dose 0.1562 mg/kg) | Mortality ([10]; dose 0.3125 mg/kg) | Mortality ([10]; dose 0.625 mg/kg) | Mortality ([10]; dose 1.25 mg/kg) | Mortality ([10]; dose 2.5 mg/kg) | further results
1 | N=C(N)NCCSCC(=O)N[C@@H]1C(=O)N2C(C(=O)O)=C(Sc3ccc(CSC(=N)N)cc3CSC(=N)N)CS[C@H]12 [Cmpd 141, (7R)-7-[((2-guanidinoethylthio)acetyl)amino]-3-[2,4-(bis)isothiouroniummethylphenylthio]-3-cephem-4-carboxylate, trifluoroacetic acid salt] | 1 µg/mL | 2 µg/mL | 0.5 µg/mL | 0.25 µg/mL | 0.25 µg/mL | 4 µg/mL | 8 µg/mL | 8 µg/mL | > 32 µg/mL | < 0.156 mg/kg | 3/10 | 3/10 | 2/10 | 1/10 | 1/10 | –
2 | N=C(N)SCCSCC(=O)N[C@@H]1C(=O)N2C(C(=O)O)=C(Sc3ccc(CSC(=N)N)cc3CSC(=N)N)CS[C@H]12 [Cmpd 142, (7R)-7-[((2-(isothiouronium)ethylthio)acetyl)amino]-3-[2,4-(bis)isothiouroniummethylphenylthio]-3-cephem-4-carboxylate, trifluoroacetic acid salt] | 1 µg/mL | 4 µg/mL | 0.5 µg/mL | 0.25 µg/mL | 0.25 µg/mL | – | 8 µg/mL | 8 µg/mL | > 32 µg/mL | < 0.156 mg/kg | 3/10 | 1/10 | 0/10 | 0/10 | 0/10 | –
3 | O=C(Cc1ccccc1)N[C@@H]1C(=O)N2C(C(=O)O)=C(SCc3ccc(-c4ccccc4)cc3)CS[C@H]12 [Cmpd 12, (7R)-7-[(Phenylacetyl)amino]-3-(4-biphenylmethylthio)-3-cephem-4-carboxylic acid] | – | > 32 µg/mL | – | – | – | – | – | – | – | – | – | – | – | – | – | activity against S. aureus Col ([2]; in words, PBP2a producer): lacking activity; activity against Enterococci [11]: potent activity
4 | CSCC(=O)N[C@@H]1C(=O)N2C(C(=O)O)=C(Sc3ccc(CSC(=N)N)cc3CSC(=N)N)CS[C@H]12 [Cmpd 140, (7R)-7-[(methylthioacetyl)amino]-3-[2,4-(bis)isothiouroniummethylphenylthio]-3-cephem-4-carboxylate, trifluoroacetic acid salt] | 1 µg/mL | 2 µg/mL | 1 µg/mL | ≤ 0.06 µg/mL | 0.125 µg/mL | > 32 µg/mL | 8 µg/mL | 8 µg/mL | > 32 µg/mL | < 0.156 mg/kg | 0/10 | 1/10 | 2/10 | 0/10 | 0/10 | –
5 | N=C(N)SCCSCC(=O)N[C@@H]1C(=O)N2C(C(=O)O)=C(Sc3ccccc3CSC(=N)N)CS[C@H]12 [Cmpd 143, (7R)-7-[((2-(isothiouronium)ethylthio)acetyl)amino]-3-[2-(isothiouroniummethyl)phenylthio]-3-cephem-4-carboxylate, trifluoroacetic acid salt] | 0.5 µg/mL | 8 µg/mL | 0.5 µg/mL | 0.125 µg/mL | – | 8 µg/mL | 16 µg/mL | 16 µg/mL | > 32 µg/mL | 0.34 mg/kg | 9/10 | 6/10 | 2/10 | – | – | MIC [5]: 0.125 µg/mL; Mortality ([10]; dose 0.0391 mg/kg): 9/10; Mortality ([10]; dose 0.0781 mg/kg): 8/10
6 | N=C(N)SCc1ccc(SC2=C(C(=O)O)N3C(=O)[C@@H](NC(=O)Cc4ccccc4)[C@H]3SC2)c(CSC(=N)N)c1 [Cmpd 138, (7R)-7-[(phenylacetyl)amino]-3-[2,4-(bis) (isothiouroniummethyl)phenylthio]-3-cephem-4-carboxylate, trifluoroacetic acid salt] | 0.5 µg/mL | 2 µg/mL | 0.5 µg/mL | ≤ 0.06 µg/mL | 0.125 µg/mL | 32 µg/mL | 8 µg/mL | 8 µg/mL | > 32 µg/mL | 0.075 mg/kg | 0/10 | 0/10 | – | – | – | Mortality ([10]; dose 0.0195 mg/kg): 9/10; Mortality ([10]; dose 0.0391 mg/kg): 10/10; Mortality ([10]; dose 0.0781 mg/kg): 6/10
7 | N=C(N)SCc1ccc(SC2=C(C(=O)O)N3C(=O)[C@@H](NC(=O)/C(=N\O)c4csc(N)n4)[C@H]3SC2)c(CSC(=N)N)c1 [Cmpd 139, (7R)-7-[(Z)-2-(Aminothiazol-4-yl)-2-(hydroxyimino)acetamido]-3-[2,4-(bis)isothiouroniummethylphenylthio]-3-cephem-4-carboxylate, trifluoroacetic acid salt] | 0.125 µg/mL | 4 µg/mL | 0.5 µg/mL | 0.25 µg/mL | 0.25 µg/mL | 1 µg/mL | 4 µg/mL | 4 µg/mL | > 32 µg/mL | 0.28 mg/kg | 4/10 | 8/10 | 4/10 | 0/10 | 1/10 | –
